Data: paper PMC4899901, “Sorokiniol: a new enzymes inhibitory metabolite from fungal endophyte Bipolaris sorokiniana LK12” (BMC Microbiology, 2016)

Columns and labels:
[1] = biological target: Acetyl Cholinestrase (AChE) (Electrophorus electricus, UniProt O42275); assay: Ellman assay (acetylthiocholine/DTNB, […] nm) with electric eel AChE; format: biochemical; details: read-out: EC50 (the source's name) (converted)
Jack bean Urease = Jack bean Urease (Canavalia ensiformis, UniProt P07374); assay: indophenol urease assay (ammonia production, […] nm); format: biochemical
Jack bean Urease, sequence (P07374 whole entry, looked up): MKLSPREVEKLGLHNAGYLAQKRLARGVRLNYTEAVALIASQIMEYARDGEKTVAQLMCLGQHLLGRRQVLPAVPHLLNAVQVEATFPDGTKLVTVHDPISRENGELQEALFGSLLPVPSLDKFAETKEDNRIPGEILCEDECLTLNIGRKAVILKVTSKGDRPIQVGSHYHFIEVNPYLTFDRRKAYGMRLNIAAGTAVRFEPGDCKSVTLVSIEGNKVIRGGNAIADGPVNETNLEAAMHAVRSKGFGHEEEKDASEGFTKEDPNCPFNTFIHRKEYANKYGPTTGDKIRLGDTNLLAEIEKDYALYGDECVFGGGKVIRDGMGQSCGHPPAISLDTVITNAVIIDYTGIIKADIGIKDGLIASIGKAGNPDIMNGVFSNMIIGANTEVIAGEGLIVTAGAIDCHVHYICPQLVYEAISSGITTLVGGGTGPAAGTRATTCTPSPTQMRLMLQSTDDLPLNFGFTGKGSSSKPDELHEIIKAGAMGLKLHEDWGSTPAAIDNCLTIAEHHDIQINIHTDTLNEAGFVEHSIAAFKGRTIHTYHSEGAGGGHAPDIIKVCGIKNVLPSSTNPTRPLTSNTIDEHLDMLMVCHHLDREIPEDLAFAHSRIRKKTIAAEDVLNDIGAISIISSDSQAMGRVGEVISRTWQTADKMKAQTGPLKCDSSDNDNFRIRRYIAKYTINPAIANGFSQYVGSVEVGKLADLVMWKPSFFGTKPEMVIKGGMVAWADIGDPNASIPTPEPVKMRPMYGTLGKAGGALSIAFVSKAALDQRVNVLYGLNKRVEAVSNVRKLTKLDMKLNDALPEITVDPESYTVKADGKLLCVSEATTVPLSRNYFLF

Acetyl Cholinestrase (AChE), sequence (O42275 24-633): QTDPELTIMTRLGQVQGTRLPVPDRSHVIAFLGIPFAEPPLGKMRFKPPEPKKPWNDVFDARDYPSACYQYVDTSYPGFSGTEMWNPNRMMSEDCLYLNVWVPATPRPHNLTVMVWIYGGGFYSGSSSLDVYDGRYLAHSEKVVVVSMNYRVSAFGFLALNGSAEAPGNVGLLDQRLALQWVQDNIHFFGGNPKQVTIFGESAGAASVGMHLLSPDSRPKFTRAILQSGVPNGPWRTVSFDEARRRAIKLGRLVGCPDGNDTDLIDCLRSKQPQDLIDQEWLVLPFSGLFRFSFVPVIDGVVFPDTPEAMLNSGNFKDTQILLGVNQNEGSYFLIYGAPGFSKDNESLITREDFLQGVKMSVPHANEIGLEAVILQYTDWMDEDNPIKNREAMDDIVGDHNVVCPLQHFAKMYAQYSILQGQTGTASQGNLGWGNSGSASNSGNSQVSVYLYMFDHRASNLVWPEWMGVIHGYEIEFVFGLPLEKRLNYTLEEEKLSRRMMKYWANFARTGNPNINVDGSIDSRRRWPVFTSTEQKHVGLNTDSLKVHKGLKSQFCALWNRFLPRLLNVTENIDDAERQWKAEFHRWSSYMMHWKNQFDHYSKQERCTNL

SMILES | IC50 [1] | % Inhibition (Jack bean Urease)
CC(C)c1ccc(CCCCCCCCCCCCCCCCCO)cc1 [compound 1, sorokiniol] | 9.08 µM | –
NC(N)=S [thiourea] | – | 95 ± 1.50 % Inhibition
